From US20130296278A1, “Diazeniumdiolate Derivatives” (Merck Sharp & Dohme Corp., priority 2011, published 2013)

Experiment: Rate of NO release (UV absorbance decay at 248 nm in pH 7.4 buffer)
Format: physicochemical
Details: 0.25 mM diazeniumdiolate in 100 mM pH 7.4 phosphate buffer, 22° C., absorbance at 248 nm; t½=ln(2)/k
Description: Compounds of the invention were evaluated for the rate of NO release using the following protocol described below.
The method described by Maragos, C. M, et al. Med. Chem. 1991, 34, 3242-3247, was followed. A 100 mM solution of pH 7.4 buffer was prepared by dissolving 626 mg of NaH2PO4.H2O and 4155 mg of Na2HPO4.7H2O in 200 mL of water. The 0.01 M solution of the individual diazeniumdiolate was prepared by dissolving the sodium diazeniumdiolate in 0.01 M sodium hydroxide solution. All solutions used were kept at room temperature. The cuvette incubator was set at 22° C. 25 μL of the 0.01 M diazeniumdiolate solution was added to a cuvette, followed by dilution with 975 μL of pH 7.4 buffer to obtain a 0.25 (25 uL of 0.01 M diluted to 1000 ul will be 0.25 mM) mM solution. The cuvette was inserted into the UV spectrometer, and its absorbance at λ=248 nm was acquired every 3 seconds.
The general first-order rate equation is: […]
The method of Kezdy, F. J.; Jaz, J.; Bruylants, A. Bull. Soc. Chim. Belg. 1958, 67, 687-706, later elaborated by Schwartz, L. M.; Gelb, R. I. Anal. Chem. 1978, 50, 1592-1594, was used to analyze the data without measuring A∞. Two equations are obtained when the measurement At is made at t and At+Δt is made at t+Δt. Dividing these two equations and rearranging the resultant equation, we arrive at
At=At+Δte^−k!+A∞(1−e^kΔt)
Plotting At against At+Δt would yield a straight line with k=−ln(slope)/Δt, A∞=intercept/(1−slope). As a result, t½=ln(2)/k.

Compound | half-life at 0.25 mM
C=CCN(/[N+]([O-])=N/[O-])C(C)(C)C.[Na+] [Example 2, Sodium 1-(N-text-butyl-N-allylamino)diazen-1-ium-1,2-diolate] | 3.17 min
CC(C)(C)N(CCO)/[N+]([O-])=N/[O-].[Na+] [Example 3, Sodium 1-[N-tert-butyl-N-(2′-hydroxyethyl)amino]diazen-1-ium-1,2-diolate] | 3.42 min
CCCN(/[N+]([O-])=N/[O-])C(C)(C)C.[Na+] [Example 1, Sodium 1-(N-tert-butyl-N-propylamino)diazen-1-ium-1,2-diolate] | 1.45 min
